The values that follow come from ChEMBL document CHEMBL1151531, “Taxol structure-activity relationships: synthesis and biological evaluation of taxol analogs modified at C-7” (Bioorg Med Chem Lett, 1994).

In test [1] the test system is HCT-116. The test can be described thus: In vitro inhibition of proliferation of human colon cancer line 116 after 72 hrs incubation. Format: functional, cell-based. Conditions: HCT-116, 72 h.
The target of test [2] is Tubulin alpha chain (Sus scrofa) (UniProt P02550). The experiment in a line: Initial tubulin polymerization rate relative to taxol. It counts as functional.
Test [3] concerns Mus musculus. The test can be described thus: Compound was evaluated in vivo against i.p. implanetd M109 tumor on day 5 and 8 post implantation at a dose of 132 mg/kg/injection when administered i.p. Format: functional. The following applies: route intraperitoneal.
Test [4] concerns Mus musculus. The test can be described thus: Compound was evaluated in vivo against i.p. implanetd M109 tumor on day 5 and 8 post implantation at a dose of 50 (mg/kg/inj)when administered i.p. It counts as functional.
The test system of test [5] is Mus musculus. The experiment in a line: Compound was evaluated in vivo against i.p. implanetd M109 tumor on day 5 and 8 post implantation at a dose of 40 mg/kg/injection when administered i.p. It counts as functional. The following applies: route intraperitoneal.
For test [6], the system named is Mus musculus. The test can be described thus: Compound was evaluated in vivo against i.p. implanted M109 tumor on day 5 and 8 post implantation at a dose of 50-75 mg/kg/injection when administered i.p. Format: functional.
Test [7] relates to Mus musculus. The test can be described thus: Compound was evaluated in vivo against i.p. implanetd M109 tumor on day 5 and 8 post implantation at a dose of 64 mg/kg/injection when administered i.p. It counts as functional. The following applies: route intraperitoneal.
Test [8] relates to Mus musculus. The test can be described thus: Compound was evaluated in vivo against i.p. implanetd M109 tumor on day 5 and 8 post implantation at a dose of 60 mg/kg/injection when administered i.p. It counts as functional. The following applies: route intraperitoneal.
For test [9], the system named is Mus musculus. The test can be described thus: Compound was evaluated in vivo against i.p. implanetd M109 tumor on day 5 and 8 post implantation at a dose of 80 mg/kg/injection when administered i.p. It counts as functional. The following applies: route intraperitoneal.
In test [10] the test system is Mus musculus. The experiment in a line: Compound was evaluated in vivo against i.p. implanetd M109 tumor on day 5 and 8 post implantation at a dose of 32 mg/kg/injection when administered i.p. Format: functional. The following applies: route intraperitoneal.
Test [11] deals with Mus musculus. The experiment in a line: Compound was evaluated in vivo against i.p. implanetd M109 tumor on day 5 and 8 post implantation at a dose of 30 mg/kg/injection when administered i.p. Format: functional. Conditions: route intraperitoneal.
Test [12] concerns Mus musculus. The experiment in a line: Compound was evaluated in vivo against i.p. implanetd M109 tumor on day 5 and 8 post implantation when administered i.p.; Scheduled. Format: functional, organism-based.

Chain of Tubulin alpha chain (Sus scrofa) (P02550 whole entry, looked up): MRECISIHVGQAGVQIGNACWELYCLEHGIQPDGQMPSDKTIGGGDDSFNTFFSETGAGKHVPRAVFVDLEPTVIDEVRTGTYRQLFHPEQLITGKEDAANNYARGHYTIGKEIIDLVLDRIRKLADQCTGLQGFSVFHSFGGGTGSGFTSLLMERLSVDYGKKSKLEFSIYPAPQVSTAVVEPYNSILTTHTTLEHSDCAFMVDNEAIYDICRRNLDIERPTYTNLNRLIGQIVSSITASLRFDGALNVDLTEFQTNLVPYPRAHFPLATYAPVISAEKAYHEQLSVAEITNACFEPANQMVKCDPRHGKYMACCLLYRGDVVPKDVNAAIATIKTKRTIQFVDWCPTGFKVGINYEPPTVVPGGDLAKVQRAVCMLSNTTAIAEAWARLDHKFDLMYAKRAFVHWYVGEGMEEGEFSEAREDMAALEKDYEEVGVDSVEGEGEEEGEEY

In turn, `CC(=O)O[C@H]1C(=O)[C@@]2(C)C([C@H](OC(=O)c3ccccc3)[C@]3(O)C[C@H](OC(=O)[C@H](O)[C@@H](NC(=O)c4ccccc4)c4ccccc4)C(C)=C1C3(C)C)[C@]1(OC(C)=O)CO[C@@H]1C[C@@H]2OC(=O)CCl` (stereo partly drawn) had a concentration for half-maximal inhibition (IC50) in test [1] of 7 nM. In [2], the Initial rate ratio came to 0.81.

Take `CCCCNC(=O)OC1C[C@H]2OC[C@@]2(OC(C)=O)C2[C@H](OC(=O)c3ccccc3)[C@]3(O)C[C@H](OC(=O)[C@H](O)[C@@H](NC(=O)c4ccccc4)c4ccccc4)C(C)=C([C@@H](OC(C)=O)C(=O)[C@]12C)C3(C)C` (stereo partly drawn): the 50% inhibitory concentration (IC50) in test [1] turned out to be 46 nM. In addition, the Initial rate ratio in [2] was found to be 0.96.

In [1], `CC(=O)O[C@H]1C(=O)[C@@]2(C)C([C@H](OC(=O)c3ccccc3)[C@]3(O)C[C@H](OC(=O)[C@H](O)[C@@H](NC(=O)c4ccccc4)c4ccccc4)C(C)=C1C3(C)C)[C@]1(OC(C)=O)CO[C@@H]1C[C@H]2F` (stereo partly drawn) yielded an IC50 of 11 nM. In addition, the Initial rate ratio in test [2] is 1.45. In [3], the “Max T/C” value came out at 185.

Turning to `CC(=O)O[C@H]1C(=O)[C@]2(C)CC[C@H]3OC[C@@]3(OC(C)=O)C2[C@H](OC(=O)c2ccccc2)[C@]2(O)C[C@H](OC(=O)[C@H](O)[C@@H](NC(=O)c3ccccc3)c3ccccc3)C(C)=C1C2(C)C` (stereo partly drawn), the IC50 in test [1] is 4 nM. For the same compound, in [2], the Initial rate ratio was determined as 0.23. For the same compound, in [4], the “Max T/C” value is given as 157.

`CC[Si](CC)(CC)OC1C[C@H]2OC[C@@]2(OC(C)=O)C2[C@H](OC(=O)c3ccccc3)[C@]3(O)C[C@H](OC(=O)[C@H](O)[C@@H](NC(=O)c4ccccc4)c4ccccc4)C(C)=C([C@@H](OC(C)=O)C(=O)[C@]12C)C3(C)C` (stereo partly drawn) registered an IC50 in [1] of more than 78 nM. Also, the Initial rate ratio in test [2] was found to be 0.53.

On to `CC(=O)O[C@H]1C(=O)[C@]2(C)C(OC(=O)NCCN(C)C)C[C@H]3OC[C@@]3(OC(C)=O)C2[C@H](OC(=O)c2ccccc2)[C@]2(O)C[C@H](OC(=O)[C@H](O)[C@@H](NC(=O)c3ccccc3)c3ccccc3)C(C)=C1C2(C)C` (stereo partly drawn), for which, in [1], the IC50 was more than 100 nM. Further, the Initial rate ratio in test [2] was 0.4.

The compound `CC(=O)O[C@H]1C(=O)[C@@]2(C)C([C@H](OC(=O)c3ccccc3)[C@]3(O)C[C@H](OC(=O)[C@H](O)[C@@H](NC(=O)OC(C)(C)C)c4ccccc4)C(C)=C1C3(C)C)[C@]1(OC(C)=O)CO[C@@H]1C[C@H]2F` (stereo partly drawn) yielded an IC50 in test [1] of 4.7 nM. For the same compound, in [2], the Initial rate ratio worked out at 0.8. Besides, in test [5], the “Max T/C” value is 147.

In [1], `CC(=O)O[C@H]1C(=O)[C@]2(C)C(O[Si](C)(C)c3ccccc3)C[C@H]3OC[C@@]3(OC(C)=O)C2[C@H](OC(=O)c2ccccc2)[C@]2(O)C[C@H](OC(=O)[C@H](O)[C@@H](NC(=O)c3ccccc3)c3ccccc3)C(C)=C1C2(C)C` (stereo partly drawn) returned an IC50 of more than 78 nM. In addition, in [2], the Initial rate ratio was determined as 0.

As for `CC(=O)O[C@H]1C(=O)[C@@]2(C)[C@H]([C@H](OC(=O)c3ccccc3)[C@]3(O)C[C@H](OC(=O)[C@H](O)[C@@H](NC(=O)c4ccccc4)c4ccccc4)C(C)=C1C3(C)C)[C@]1(OC(C)=O)CO[C@@H]1C[C@@H]2O` [PACLITAXEL], the “Max T/C” value in test [6] is listed as 276.

The compound `CC(=O)O[C@H]1C(=O)[C@]2(C)CC[C@H]3OC[C@@]3(OC(C)=O)C2[C@H](OC(=O)c2ccccc2)[C@]2(O)C[C@H](OC(=O)[C@H](O)[C@@H](NC(=O)OC(C)(C)C)c3ccccc3)C(C)=C1C2(C)C` (stereo partly drawn) displayed a half-maximal inhibitory concentration (IC50) in [1] of 1.6 nM. For the same compound, the Initial rate ratio in test [2] is 0.8. In [7], the “Max T/C” value was determined as 156.

`CC(=O)O[C@H]1C(=O)[C@]2(C)C=C[C@H]3OC[C@@]3(OC(C)=O)C2[C@H](OC(=O)c2ccccc2)[C@]2(O)C[C@H](OC(=O)[C@H](O)[C@@H](NC(=O)c3ccccc3)c3ccccc3)C(C)=C1C2(C)C` (stereo partly drawn) came in with an IC50 in test [1] of 5 nM. In addition, in test [2], the Initial rate ratio is 1.31. In addition, the “Max T/C” value in test [8] amounted to 161.

`CCOC(=O)O[C@H]1C[C@H]2OC[C@@]2(OC(C)=O)C2[C@H](OC(=O)c3ccccc3)[C@]3(O)C[C@H](OC(=O)[C@H](O)[C@@H](NC(=O)c4ccccc4)c4ccccc4)C(C)=C([C@@H](OC(C)=O)C(=O)[C@@]21C)C3(C)C` (stereo partly drawn) showed a concentration for half-maximal inhibition (IC50) in test [1] of 6 nM. The Initial rate ratio in test [2] was 0.72. In addition, in test [5], the “Max T/C” value amounted to 289.

Compound `CC(=O)O[C@H]1C(=O)[C@]23C[C@H]2C[C@H]2OC[C@@]2(OC(C)=O)C3[C@H](OC(=O)c2ccccc2)[C@]2(O)C[C@H](OC(=O)[C@H](O)[C@@H](NC(=O)c3ccccc3)c3ccccc3)C(C)=C1C2(C)C` (stereo partly drawn) registered an IC50 in [1] of 8 nM. In addition, the Initial rate ratio in [2] came to 0.56. In test [9], the “Max T/C” value is given as 156.

In turn, `CC(=O)O[C@H]1C(=O)[C@]2(C)C(OC(=O)NCCCC(=O)O)C[C@H]3OC[C@@]3(OC(C)=O)C2[C@H](OC(=O)c2ccccc2)[C@]2(O)C[C@H](OC(=O)[C@H](O)[C@@H](NC(=O)c3ccccc3)c3ccccc3)C(C)=C1C2(C)C` (stereo partly drawn) had an IC50 in test [1] of more than 3900 nM. Moreover, in test [2], the Initial rate ratio was found to be 0.71.

As for `CC(=O)O[C@H]1C(=O)[C@]2(C)C(O[Si](C)(C)C)C[C@H]3OC[C@@]3(OC(C)=O)C2[C@H](OC(=O)c2ccccc2)[C@]2(O)C[C@H](OC(=O)[C@H](O)[C@@H](NC(=O)c3ccccc3)c3ccccc3)C(C)=C1C2(C)C` (stereo partly drawn), the concentration for half-maximal inhibition (IC50) in test [1] was more than 60 nM. The Initial rate ratio in [2] was 0.

`CC(=O)O[C@H]1C(=O)[C@@]2(C)C([C@H](OC(=O)c3ccccc3)[C@]3(O)C[C@H](OC(=O)[C@H](O)[C@@H](NC(=O)c4ccccc4)c4ccccc4)C(C)=C1C3(C)C)[C@]1(OC(C)=O)CO[C@@H]1C[C@H]2O` (stereo partly drawn) registered a half-maximal inhibitory concentration (IC50) in test [1] of 2 nM. For the same compound, the “Max T/C” value in test [10] is on record as 154; in [11] it was 126.

In test [1], `CC(=O)O[C@@]12CO[C@@H]1C[C@H](O)[C@@]1(C)C(=O)[C@H](O)C3=C(C)[C@@H](OC(=O)[C@H](O)[C@@H](NC(=O)OC(C)(C)C)c4ccccc4)C[C@@](O)([C@@H](OC(=O)c4ccccc4)[C@H]21)C3(C)C` [DOCETAXEL] returned an IC50 of 3 nM. Moreover, in test [2], the Initial rate ratio came to 2. In addition, the “Max T/C” value in test [12] is recorded as “Scheduled”.

In the case of `CC(=O)O[C@H]1C(=O)[C@@]2(C)C([C@H](OC(=O)c3ccccc3)[C@]3(O)C[C@H](OC(=O)[C@H](O)[C@@H](NC(=O)c4ccccc4)c4ccccc4)C(C)=C1C3(C)C)[C@]1(OC(C)=O)CO[C@@H]1C[C@@H]2OS(C)(=O)=O` (stereo partly drawn), the Initial rate ratio in test [2] amounted to 1.1.
